Source: the supplement of paper PMC10307832

How the values were obtained:
Assay in all cases: relative viability (nuclei count vs DMSO), 5 days (fraction); higher = more cells survive
[1] = compound: Cc1nc(C(=O)NCC(=O)O)c(O)c2ccc(Oc3ccccc3)cc12 [FG-4592] + CC(=O)c1c(C)c2cnc(Nc3ccc(N4CCNCC4)cn3)nc2n(C2CCCC2)c1=O [Palbociclib] (partner 0.5 µM)
In short: (§1)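 After 5 days of treatment, lung cancer cells in 1536-well plates were fixed and stained in a single step (final 0.05% Triton X-100, 1% formaldehyde, 1 ug/ml Hoechst) and their nuclei counted on 4× images. Treatment had been applied by pin tool the day after seeding as one drug alone or as a fixed anchor-drug dose with five library-drug doses (not always all listed) in √10 steps. Relative viability is the nuclei count of treated wells divided by that of vehicle wells, and values are medians of duplicate plates.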

[2] = compound: Cc1nc(C(=O)NCC(=O)O)c(O)c2ccc(Oc3ccccc3)cc12 [FG-4592] + CCNC(=O)c1noc(-c2cc(C(C)C)c(O)cc2O)c1-c1ccc(CN2CCOCC2)cc1 [Luminespib] (partner 0.01 µM)
In short: as §1

[3] = compound: Cc1nc(C(=O)NCC(=O)O)c(O)c2ccc(Oc3ccccc3)cc12 [FG-4592] + N=C(N)NC(=N)NCCc1ccccc1 [Phenformin] (partner 250 µM)
In short: as §1

[4] = compound: CC1=CC(=C(N1C2=CC=C(C=C2)Cl)C)C(=O)CN3CCCCC3 [IU1-47] + CS(=O)(=O)CCNCc1ccc(-c2ccc3ncnc(Nc4ccc(OCc5cccc(F)c5)c(Cl)c4)c3c2)o1 [Lapatinib] (partner 2 µM)
In short: as §1

Cell Line	relative viability ([1]; first compound 0.08 µM)	relative viability ([1]; first compound 0.253 µM)	relative viability ([1]; first compound 0.8 µM)	relative viability ([1]; first compound 2.53 µM)	relative viability ([1]; first compound 8 µM)	relative viability ([2]; first compound 0.08 µM)	relative viability ([2]; first compound 0.253 µM)	relative viability ([2]; first compound 0.8 µM)	relative viability ([2]; first compound 2.53 µM)	relative viability ([2]; first compound 8 µM)	relative viability ([3]; first compound 0.08 µM)	relative viability ([3]; first compound 0.253 µM)	relative viability ([3]; first compound 0.8 µM)	relative viability ([3]; first compound 2.53 µM)	relative viability ([3]; first compound 8 µM)	relative viability ([4]; first compound 0.08 µM)	relative viability ([4]; first compound 0.253 µM)	relative viability ([4]; first compound 0.8 µM)	relative viability ([4]; first compound 2.53 µM)	relative viability ([4]; first compound 8 µM)
NCI-H2342	0.519	0.503	0.47	0.538	0.489	0.674	0.71	0.576	0.783	0.537	0.521	0.531	0.519	0.613	0.469	–	–	–	–	–
SK-MES-1	0.331	0.287	0.284	0.32	0.327	0.837	0.721	0.683	0.794	0.785	0.626	0.66	0.669	0.596	0.674	0.5	0.503	0.541	0.465	0.45
HCC-366	0.365	0.367	0.311	0.437	0.291	–	–	–	–	–	0.554	0.608	0.626	0.615	0.599	1.04	0.938	1.26	–	1.15
201T	0.349	0.362	0.341	0.36	0.341	1.04	0.984	1.06	1.03	1.06	0.399	0.408	0.423	0.437	0.493	1.04	1	1.05	–	0.957
HCC-827	0.438	0.417	0.402	0.507	0.467	0.643	0.587	0.702	0.657	0.591	0.37	0.376	0.38	0.367	0.401	0.198	0.215	0.197	0.19	0.207
NCI-H647	0.422	0.416	0.366	0.374	0.175	0.183	0.181	0.174	0.201	0.109	0.435	0.536	0.46	0.467	0.457	1.02	1.22	1.37	1.22	0.49
NCI-H2023	0.334	0.323	0.315	0.397	0.286	0.617	0.634	0.698	0.773	0.599	0.427	0.38	0.437	0.442	0.379	0.924	0.872	0.805	0.334	0.994
NCI-H520	0.15	0.174	0.192	0.215	0.162	0.22	0.209	–	0.204	0.201	0.31	0.595	–	0.51	0.465	0.774	0.858	1	0.879	0.59
RERF-LC-KJ	1.02	0.89	0.937	1.05	1.04	1.23	1.24	1.45	1.17	0.991	0.378	0.324	0.418	0.538	0.481	0.91	0.868	0.873	0.835	0.829
A-427	0.502	0.489	0.562	0.553	0.591	0.912	0.926	0.89	1.18	1	0.27	0.313	0.341	0.335	0.414	1.01	0.994	0.977	–	0.873
NCI-H441	0.226	0.214	0.208	0.226	0.186	0.314	0.307	0.307	0.443	0.287	0.876	0.69	0.928	0.686	0.848	–	–	–	–	–
NCI-H1703	–	–	–	–	–	–	–	–	–	–	–	–	–	–	–	1.21	1.2	1.03	1.39	0.96
NCI-H1792	0.493	0.614	0.689	0.661	0.684	0.36	0.492	0.454	0.413	0.478	0.355	0.247	–	0.352	0.24	0.923	0.999	0.988	0.956	0.514
Calu-6	–	–	–	–	–	–	–	–	–	–	–	–	–	–	–	1.14	1.23	1.11	1.18	0.94
SK-LU-1	0.308	0.325	0.345	0.378	0.372	0.184	0.174	0.187	0.223	0.202	0.445	0.387	0.456	0.49	0.5	0.857	0.967	0.82	0.822	0.839
PC-3 [JPC-3]	0.55	0.542	–	0.557	0.567	0.735	0.639	0.817	0.798	0.575	0.489	0.457	0.531	0.462	0.486	0.47	0.46	0.509	–	0.461
EMC-BAC-2	0.51	0.529	0.467	0.503	0.47	1.2	1.11	1.1	1.17	1.11	0.496	0.516	0.414	0.509	0.454	0.947	0.944	0.966	0.955	0.879
LK-2	0.521	0.656	–	0.679	0.599	0.227	0.168	–	0.146	0.177	0.365	0.449	–	0.33	0.264	1.15	1.26	0.963	0.703	0.517
NCI-H2126	0.335	0.358	0.324	0.372	0.334	0.918	0.904	0.887	0.759	0.603	0.554	0.5	0.51	0.492	0.461	0.802	0.767	0.807	0.523	0.753
